Reference: patent publication US4820690A (G. D. Searle & Co., priority 1984, dated 1989)

Legend:
gastric acid secretion [1] = details: administered intravenously to animals; cited from earlier work
[2] = test system: cysteamine induced duodenal ulcers; assay: Healing of cysteamine-induced perforating duodenal ulcers, therapy in drinking water for 50 days (Example 1); format: in vivo; details: rats, 50 days therapy from day 7 after cysteamine, urogastrone 6 μg./rat/day, cimetidine 100 mg./rat/day; for Healed (number of healed ulcers) / Unhealed (number of unhealed ulcers): n 15
Protocol: Rats with perforating duodenal ulcers confirmed by laparotomy were selected from a large number and given two doses of cysteamine as described in the following protocol. These animals were randomly assigned to treatment groups of 15 rats each. The protocol utilises 2 doses of cysteamine (300 mg./kg. and 150 mg./kg., 6 hours apart). This procedure produces deep perforating duodenal ulcers in a majority of the rats injected. The "chronic" ulcers heal extremely slowly. Previous studies have shown that after 50 days only 20% have healed as judged by reepithelialization of the surface. Even after 200 days, 36% remain unhealed. In order to provide for a reliable experimental protocol, rats given 2 doses of cysteamine are subjected to an intra-abdominal inspection by laparotomy 5 days after induction. Only those rats in which perforation of the ulcer to the duodenal external serosal surface has occurred are included in the experimental groups. Rats with non-perforating ulcers are discarded. Therapy by drug or placebo then begins on day 7 post-induction.On termination after a standardised period of (21 to 50 days) therapy the duodenum is removed from all rats, fixed and stained with PAS and the number of healed and unhealed ulcers determined by macroscopic examination of the mucosal surface with a stereomicroscope. Healing is defined as restoration of complete mucosal integrity by reepithelialisation of the surface. This is confirmed by subsequent histology. In this example, therapy commenced on day 7 following cysteamine and continued for 50 days.

[3] = test system: cysteamine induced duodenal ulcers; assay: Healing of cysteamine-induced duodenal ulcers, therapy by oral gavage for 21 days, assessed blind by 2 observers (Example 2); format: in vivo; details: rats, 10 μg./rat/dose by oral gavage three times a day
Protocol: The protocol utilises 2 doses of cysteamine (300 mg./kg. and 150 mg./kg., 6 hours apart).
In order to provide for a reliable experimental protocol, rats given 2 doses of cysteamine are subjected to an intra-abdominal inspection by laparotomy 5 days after induction. Only those rats in which perforation of the ulcer to the duodenal external serosal surface has occurred are included in the experimental groups. Rats with non-perforating ulcers are discarded. Therapy by drug or placebo then begins on day 7 post-induction.On termination after a standardised period of (21 to 50 days) therapy the duodenum is removed from all rats, fixed and stained with PAS and the number of healed and unhealed ulcers determined by macroscopic examination of the mucosal surface with a stereomicroscope. Healing is defined as restoration of complete mucosal integrity by reepithelialisation of the surface.
In this Example the same protocol was followed as in Example 1 but therapy was continued for only 21 days after commencing on day 7 following ulcer induction.

gastric acid secretion [4] = assay: Histamine stimulated acid secretion in beagle dogs with Heidenhain pouches (Example 3); format: in vivo, dog; details: Heidenhain pouch dogs; for effect on acid secretion, intravenous administration: intravenously administered
Protocol: Male beagle dogs (14-22 kg.) were prepared with isolated Heidenhain (vagal denervated) pouches derived from the fundic area of the stomach by the method of Rudick et al, J. Surg. Res. 7: 383, 1967. Animals were allowed 4-6 weeks to recover from surgery and given a 2-3 month training period to standardise laboratory behaviour and secretory responses. The dogs were fasted for 23 hours prior to use, the pouch then flushed with warm water and histamine infused subcutaneously at a rate of 10 μg./min. Pouch secretions were collected every 15 minutes, their volume measured and aliquots titrated to pH 7.0 with 100 mM NaOH.

[5] = test system: gastrointestinal epithelial proliferation; assay: Crypt cell production rate of gastrointestinal epithelium in rats on total parenteral nutrition (Example 4); format: in vivo, rat; details: intragastric infusion of similar or much larger doses than i.v.
Protocol: These animals have permanent indwelling i.v. catheters connected to infusion pumps via 360° swivel joints which allow normal mobility of the rats within their cages. A complete parenteral food mixture is infused through the catheters at a rate of 60 ml./rat/24 h. The animals are allowed water in the normal way but no food by mouth.
Epithelial cell turnover in these experiments was determined as the crypt cell production rate (CCPR) at each site examined. CCPR was defined as the number of new cells produced per mucosal crypt per hour (for method of determination see Al Nafussi and Wright, Virch. Arch. Cell Pathol. 40: 63, 1982).
Infusion was continued for 10 days.

[6] = test system: acid secretion in the stomach; details: administered by a systemic route; cited from earlier work
gastrointestinal mucosa = details: administered concurrently with or prior to the injurious stimuli; cited from earlier work

Compound: gamma-urogastrone: 52 amino acid form that differs from beta-urogastrone only in lacking the carboxy-terminal arginine residue (NSDSECPLSHDGYCLHDGVCMYIEALDKYACNCVVGYIGERCQYRDLKWWEL; Epidermal growth factor; UniProt P01133 971-1022, looked up, fragment)
- activity in inhibiting acid secretion, beta- versus gamma-urogastrone (gastric acid secretion [1]): equal activity

Compound: Urogastrone: active form of human urogastrone, polypeptide hormone of 53 amino acids; recombinant derived, produced by microbial methods
- Percentage Rate (healed) [2]: 43%
- Healed (number of healed ulcers) [2]: 6
- Unhealed (number of unhealed ulcers) [2]: 8
- Percentage healed, observer (1) [3]: 36%
- Percentage healed, observer (2) [3]: 23%
- Healed, observer (1) ([3]; n 22): 8
- Unhealed, observer (1) ([3]; n 22): 14
- Unhealed, observer (2) ([3]; n 22): 17
- time to peak inhibition of the acid secretion response to histamine (gastric acid secretion [4]; after intravenous bolus injection): ≤ 30 min
- dose required to produce a 50% inhibition of acid secretion (gastric acid secretion [4]; intravenous bolus dose, histamine 10 μg./min s.c., from log-linear dose response regression plots): 0.27 µg/kg
- effect on acid secretion, intravenous administration (gastric acid secretion [4]): inhibited acid secretion
- effect on acid secretion, oral administration (gastric acid secretion [4]; single oral solution dose, even at 4 mg. (approximately 200 μg./kg.)): no effect on acid secretion
- effect on gastrointestinal epithelial proliferation, intragastric infusion [5]: no effect
- inhibition of acid secretion in the stomach of humans [6]: inhibit acid secretion
- activity in inhibiting acid secretion, beta- versus gamma-urogastrone (gastric acid secretion [1]): equal activity
- protection of the gastrointestinal mucosa against damaging stimuli and ulcer formation (gastrointestinal mucosa): protect the gastrointestinal mucosa

Compound: mEGF: epidermal growth factor from mouse salivary glands, polypeptide of 53 amino acids resembling beta-urogastrone (NSYPGCPSSYDGYCLNGGVCMHIESLDSYTCNCVIGYSGDRCQTRDLRWWELR; Epidermal growth factor; UniProt P01132 977-1029, looked up) [reference compound]
- effect on acid secretion, intravenous administration (gastric acid secretion [4]): inhibited acid secretion
- protection of the gastrointestinal mucosa against damaging stimuli and ulcer formation (gastrointestinal mucosa): protect the gastrointestinal mucosa

Compound: CN/C(=N/CCSCc1nc[nH]c1C)NC#N [Cimetidine, reference compound]
- Percentage Rate (healed) [2]: 40%
- Healed (number of healed ulcers) [2]: 6
- Unhealed (number of unhealed ulcers) [2]: 9
